# Data taken from patent US6939876B2, “Prevention of addiction in pain management” (priority 2001, dated 2005).
# Tests used:
# [1] = tested on: extracellular DA concentrations in the nucleus accumbens (NAcc); experiment: In vivo microdialysis: morphine-induced extracellular DA in the nucleus accumbens of freely moving rats; design: species or system Sprague-Dawley rats
# Text: The effects of increased endogenous GABA activity on morphine-induced extracellular DA concentrations in the nucleus accumbens (NAcc) of freely moving rats was explored.
# All animals there used under an IACUC-approved protocol and with strict adherence to the NIH guidelines. Adult male Sprague-Dawley rats (200-300 g, Taconic Farms), housed in the animals care facility under 12:12 light/dark conditions, were placed into 6 groups (n=3-6), anesthetized and siliconized guide cannulae were stereotactically implanted into the right NAcc (2.0 mm anterior and 1.0 mm lateral to bregms, and 7.0 mm ventral to the cortical surface) and prefrontal cortex (PFC) at least 4 days prior to study. Microdialysis probes (2.0 mm, Bioanalytical Systems, BAS, West Lafayette. Ind.) were positioned within the guide cannulae and artificial cerebrospinal fluid (ACSF. 155.0 mM NA^−, 1.1 mM Ca^2−, 2.9 mM K^−, 132.76 mM Cl^−, and 0.83 mM Mg^2−) was administered through the probe using a CMA/100 microinfusion pump (BAS) at a flow rate of 2.0 μl/min.
# Animals were placed in bowls, and probes were inserted and flushed with ACSF overnight. On the day of the study. a minimum of three samples were injected to determine baseline stability. Samples were collected for 20 min. and injected on-line (CMA/160, BAS). The average dopamine concentration of these three stable samples was defined as control (100%). and all subsequent treatment values were transformed to a percentage of that control. Upon establishing a stable baseline, the morphine was administered by intraperitoneal (i.p.) injection. The high performance liquid chromatography (HPLC) system consists of a BAS reverse-phase column (3.0 μC-18), a BAS LC-4C electrochemical transducer with a dual/glassy carbon electrode set at 650 mV, a computer that analyzes data on-line using a commercial software package (Chromograph Bioanalytical Systems), and a dual pen chart recorder. The mobile phase (flow rate 1.0 ml/min) consisted of 7.0% methanol, 50 mM sodium phosphate monobasic, 1.0 mM sodium octyl sulfate, and 0.1 mm […], pH 4.0. DA eluted at 7.5 min.
# Gamma-vinyl GABA (GVG), an irreversible inhibitor of GABA-transaminase, was administered by intraperitoneal injection 2.5 hours prior to morphine (7 mg/kg). In all studies, animals were placed in the microdialysis bowls the night before the experiment and artificial cerebrospinal fluid (ACSF) was perfused through the microdialysis probes at a flow rate of 2.0 μl/min. At the end of each study, animals were sacrificed and their brains were removed and sectioned for probe placement verification
# Levels of extracellular DA were sampled from the NAcc continuously using a stereoaxically implanted probe. Morphine alone increases DA concentrations 50% above baseline in the NAcc (p<0.01, T=3.79).
# [2] = tested on: male Sprague-Dawley rats; experiment: Heroin-induced conditioned place preference (CPP), expression phase; assay type: in vivo; settings: for Time spent in chambers, Paired / Time spent in chambers, Unpaired: mean ± S.E.M.
# Text: In all rodent studies, male Sprague-Dawley rats were used (200-225 g. Taconic farms, Germantown, N.Y.). Animals were allowed to acclimate to the animal housing facility for at least 5 days prior to beginning the experiments. Conditioned place preference (CPP) chambers were used as previously described (Lepore et al., 1995), except instead of one chamber being entirely white and the other black, one chamber was entirely light blue with a stainless steel floor and the second chamber was light blue with horizontal black stripes (2.5 cm wide) spaced 3.8 cm apart with a smooth plexiglass floor. In all CPP studies with GVG, the saline volume was (1 ml/kg), and the heroin doses were 1.5 mg/kg. The saline, heroin and GVG were all injected intraperitonealy (i.p.). The conditioning procedure for the acquisition phase consisted of 12 sessions carried out consecutively over 12 days.
# The CPP pairings were: 1) saline/saline 2) saline/heroin 3) GVG/saline 4) saline/heroin and GVG. The animals in each group were randomly assigned to a 2×2 factorial design ,with one factor being the pairing chamber and the other factor being the order of conditioning. The animals that received either saline or heroin were injected and confined to the appropriate compartment for 30 minutes. The GVG injections were given 3 hours before saline or heroin injection and subsequent placement of the animals in the appropriate chamber. This was done as it has been shown that GABA levels reach maximal values 3 to 4 hours following GVG administration.
# On the test day (day 12), neither drugs nor saline were administered and the animal was allowed to move freely between both chambers for fifteen minutes. The amount of time spent in each chamber was recorded using an automated infrared beam electronically coupled to a timer. For the expression phase of CPP to heroin, the animals were habituated and conditioned to heroin as described in the acquisition studies, but no animals in the expression studies were given GVG on conditioning days. On the test day (day 12), the animals being tested in the expression phase, unlike the animals in the acquisition phase, received either saline or GVG 2.5 hours before they were placed in the apparatus and allowed free access to both chambers for 15 minutes.
# [3] = tested on: male Sprague-Dawley rats; experiment: Hot plate test (53 degrees Centigrade), latency to forepaw licking; assay type: in vivo; settings: for Licking latency: mean ± S.E.M., 10 rats
# Protocol: The effect of GVG on the analgesic potency of morphine in male Sprague-Dawley rats was examined using the hot plate test. In this paradigm, animals are treated and placed on a hot plate at a temperature of 53 degrees Centigrade and the latency to licking of one of the forepaws was measured. This test is used as screen for agents that have moderate to significant analgesic action as these drugs will increase latency to forepaw licking.
# The rats were treated with either vehicle or GVG 2.5 hours prior to receiving either vehicle or morphine. Animals were given either vehicle or morphine 30 minutes prior to placing them on a hot plate at a constant temperature of 53 degrees Centigrade. Analgesic potency was assessed by measuring the latency to forepaw licking after placement on the hot plate. A total of 10 rats were examined for each treatment group.
# [4] = pairing Vehicle/Heroin, GVG 300 mg/kg on test day (2.5 h before test)
# [5] = pairing Vehicle/Vehicle, GVG 300 mg/kg on test day
# [6] = pairing Vehicle/Heroin (heroin 1.5 mg/kg i.p.), vehicle on test day
structure (smiles),measurement,setting,value
"C=CC(N)CCC(=O)O (stereo not drawn) [GVG, 4-amino-5-hexanoic acid]",Inhibition of the DA response to morphine in the NAcc,[1]; GVG 150 mg/kg i.p. 2.5 hours prior to morphine 7 mg/kg,no significant inhibition
same,Attenuation of the DA response to morphine in the NAcc,"[1]; GVG 300 mg/kg i.p. 2.5 hours prior to morphine 7 mg/kg, p<0.01",62%
same,Attenuation of the DA response to morphine in the NAcc,"[1]; GVG 500 mg/kg i.p. 2.5 hours prior to morphine 7 mg/kg, p<0.001",67%
same,Effect on expression of heroin-induced CPP,[2]; GVG 300 mg/kg on test day,blocked the expression of heroin-induced CPP
same,"Time spent in chambers, Paired",[2]; [4],6.6 ± 0.7 min
same,"Time spent in chambers, Unpaired",[2]; [4],8.4 ± 0.7 min
same,"Time spent in chambers, Paired",[2]; [5],7.4 ± 0.3 min
same,"Time spent in chambers, Unpaired",[2]; [5],7.6 ± 0.3 min
same,Effect of GVG on the analgesic potency of morphine,[3]; GVG 300 mg/kg i.p. 2.5 hrs prior to morphine 10 mg/kg i.p.,does not alter the analgesic potency of morphine
same,Licking latency,"[3]; pretreatment GVG 300 mg/kg (2.5 h before), treatment morphine 10 mg/kg",27 ± 2.9 s
same,Licking latency,"[3]; pretreatment GVG 300 mg/kg (2.5 h before), treatment vehicle 1 ml/kg",17 ± 1.4+ sec
"CC(=O)Oc1ccc2c3c1O[C@H]1[C@@H](OC(C)=O)C=C[C@H]4[C@@H](C2)N(C)CC[C@@]341 [Heroin, heroin]","Time spent in chambers, Paired",[2]; [6],10.9 ± 0.4 min
same,"Time spent in chambers, Unpaired",[2]; [6],4.1 ± 0.4 min
"CN1CC[C@]23c4c5ccc(O)c4O[C@H]2[C@@H](O)C=C[C@H]3[C@H]1C5 [Morphine, morphine]",Increase of DA concentrations above baseline in the NAcc,"[1]; morphine alone, 7 mg/kg i.p., baseline = 100%, p<0.01",50%
same,Licking latency,"[3]; pretreatment vehicle 1 ml/kg, treatment morphine 10 mg/kg 30 min before hot plate",27 ± 3.0 s
